Data: patent US20200179312A1, “ANALOGUES OF CYSTEAMINE AS THERAPEUTIC AGENTS FOR CYSTIC FIBROSIS” (I.E.R.F.C. EUROPEAN INSTITUTE FOR CYSTIC FIBROSIS RESEARCH, priority 2018, published 2020)

What was measured:
CFTR = CFTR (Homo sapiens, UniProt P13569, DEL508-508); assay: Immunoblot detection of CFTR in CFBE cells; assay type: cell-based; parameters: expressed in transfected cells; host or cells: CFBE41o- cells
Protocol: Cell lines experiments. CFBE41l- and 16HBE14o-cells were cultured in Minimum Essential Medium (MEM) with Earle's salt, 200 mM L-Glutamine, 10% FBS and penicillin/streptomycin. CFBE41o-cells were transfected with AF508-CFTR at 37° C. and incubated for 18 h with cysteamine (250 μM) or different concentration of IE1.
(§1) The proteins of cell lines lysates or lung or small intestine homogenates, obtained from treated and untreated cells or mice, were quantified by a Bio-Rad protein assay to ensure equal protein loading before immunoblot analysis. Fifty micrograms of proteins were loaded in each lane. Antibodies against SQSTM1, (Sigma Aldrich,P0067) 1:1000, BECN1 (Abcam, ab58878), 1:1000, CFTR clone CF3 (Abcam, ab2784) 1:1000 or anti-CFTR antibody 660 1:1000, Phospho-p44/42 MAPK (Erk1/2) (Thr202/Tyr204) (Cell Signaling Technology, #91101) 1:1000, TG2 (CUB7402, NEOMARKER) 1:1000 were used. Normalization was performed by probing the membrane with anti-β-actin (Cell Signaling, #4970) 1:1000 or anti-α-tubulin (Cell Signaling Technology, 2148) 1:1000.

TNF alpha, MIP-2 = assay: ELISA of inflammatory cytokines in tissues of CftrF508del mice; assay type: in vivo; conditions: intestinal and lung tissues
Excerpt: CF mice homozygous for the delF508-CFTR mutation (abbreviated CftrF508del) in the 129/FVB outbred background (CftrtmlEUR, F508del, FVB/129) were obtained from Erasmus Medical Center Rotterdam, The Netherlands (CF coordinated action program EU FP6 LSHM-CT-2005-018932). These studies and procedures were approved by the local Ethics Committee for Animal Welfare (IACUC No 713). Young adult CF mice and their wild-type (wt) littermates were housed in static isolator cages at the animal care specific pathogen-free facility of Charles River (Calco, Italy). CftrF508del mice were treated with daily intraperitoneal injections of cysteamine (100 μl of 0.05 M in PBS) (Sigma Aldrich, M9768) or IE1 (100 μl of 0.075-0.05-0.025-0.0125 M, in PBS) for 5 d or with cysteamine (5 d) or IE1 different concentrations followed by 10 d or 20 d of PBS alone (n=5 mice per group) (19,20).
ELISA. ELISA was performed on tissue samples using standard ELISA kits (R&D Systems) for TNF-α, Mip2a. According to the manufacturer's instructions, samples were read in triplicate at 450 nm in a microplate Reader (Bio-Rad, Milan, Italy) using Microplate Manager 5.2.1 software.
Values were normalized to protein concentration evaluated by Bradford analysis.

[1] = test system: BECN1, SQSTM1/p62, (phospho)p42/44 MAPK; assay: Immunoblot of autophagy and inflammation markers in nasal primary cells; assay type: cell-based, human; conditions: 0.1 μM
Excerpt: Freshly isolated brushed nasal epithelial cells were collected by nasal brushing, as previously described (21, 21) from 10 F508del-CFTR homozygous CF patients and from 5 non-CF healthy volunteers recruited from staff at the same time points. Both patients and healthy volunteers gave written informed consent. […] Brushes with cells were immediately transferred into RPMI 1640 medium (Invitrogen) containing 1% penicillin-streptomycin (Lonza, 17-602E), in 15-ml sterilized tubes. The tubes were incubated at 37° C. for 2 h on a thermo shaker, to remove all cell from brushes; the brushes were then removed and the cells centrifuged at 800×g (2000 rpm) for 20 min. The supernatant fractions were discarded and the cell pellet treated with […] of trypsin-versene (EDTA) solution (Lonza, 17-161) for 4 min at 37° C. to disaggregate possible cell clusters. Trypsin solution was inactivated by adding 3 ml of serum-free Bronchial Epithelial cell Growth Medium BEGM (Clonetics, Lonza, CC3170). After centrifugation at 800×g (2000 rpm) for 10 min, cells were placed in CELLC T 25 flasks (Sarstedt Ltd, CS300) with 10 ml of BEGM medium. Nonspecific epithelial cells were removed during the daily cell washing and medium changes.
as §1

Sequence of CFTR (P13569 with tags, fused parts or gaps DEL508-508): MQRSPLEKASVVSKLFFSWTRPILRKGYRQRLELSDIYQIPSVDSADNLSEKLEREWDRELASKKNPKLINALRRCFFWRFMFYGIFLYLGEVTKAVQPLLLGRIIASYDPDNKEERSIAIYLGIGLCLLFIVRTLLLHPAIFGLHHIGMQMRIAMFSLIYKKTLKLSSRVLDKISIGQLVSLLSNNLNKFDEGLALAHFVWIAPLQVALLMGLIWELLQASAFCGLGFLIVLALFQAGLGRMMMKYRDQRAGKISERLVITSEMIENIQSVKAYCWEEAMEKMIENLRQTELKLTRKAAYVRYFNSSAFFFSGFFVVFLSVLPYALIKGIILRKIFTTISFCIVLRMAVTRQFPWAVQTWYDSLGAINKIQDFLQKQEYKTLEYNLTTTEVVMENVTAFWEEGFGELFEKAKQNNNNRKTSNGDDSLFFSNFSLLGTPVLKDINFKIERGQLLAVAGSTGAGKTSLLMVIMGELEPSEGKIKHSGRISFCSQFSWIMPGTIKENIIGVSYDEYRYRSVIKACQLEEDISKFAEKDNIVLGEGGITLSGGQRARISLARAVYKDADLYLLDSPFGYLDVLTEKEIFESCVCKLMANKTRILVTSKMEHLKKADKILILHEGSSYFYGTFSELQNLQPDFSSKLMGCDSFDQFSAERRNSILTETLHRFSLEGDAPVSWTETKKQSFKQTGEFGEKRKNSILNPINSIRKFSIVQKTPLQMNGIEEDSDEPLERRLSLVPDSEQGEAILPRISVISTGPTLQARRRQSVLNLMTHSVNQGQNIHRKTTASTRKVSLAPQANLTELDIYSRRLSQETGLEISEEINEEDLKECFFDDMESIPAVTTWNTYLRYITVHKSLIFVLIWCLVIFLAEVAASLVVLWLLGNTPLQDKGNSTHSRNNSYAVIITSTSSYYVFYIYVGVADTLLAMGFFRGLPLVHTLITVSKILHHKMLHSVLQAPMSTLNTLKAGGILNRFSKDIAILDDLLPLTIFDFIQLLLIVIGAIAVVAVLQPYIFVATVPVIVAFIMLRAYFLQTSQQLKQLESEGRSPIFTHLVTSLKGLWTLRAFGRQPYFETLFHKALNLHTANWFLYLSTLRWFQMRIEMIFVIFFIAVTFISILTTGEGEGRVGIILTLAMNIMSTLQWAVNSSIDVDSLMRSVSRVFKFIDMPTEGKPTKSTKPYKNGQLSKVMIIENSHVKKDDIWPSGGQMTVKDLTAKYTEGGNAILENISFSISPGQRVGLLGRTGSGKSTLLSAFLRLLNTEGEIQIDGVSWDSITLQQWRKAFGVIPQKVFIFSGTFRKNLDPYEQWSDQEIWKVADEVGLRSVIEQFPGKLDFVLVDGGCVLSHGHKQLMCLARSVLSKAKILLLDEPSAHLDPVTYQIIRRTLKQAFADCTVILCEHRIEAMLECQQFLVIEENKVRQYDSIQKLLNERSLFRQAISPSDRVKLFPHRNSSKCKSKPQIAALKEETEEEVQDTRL

PM-resident CFTR protein after washout (CFTR; 0.1 μM, 24 h of washout): maintained
PM-resident CFTR protein after washout (CFTR; 48 h of washout): decreases
PM-resident CFTR protein after washout with EGCG added (CFTR; 48 h of washout, EGCG added): completely maintained
SMILES: NCCCS [IE1, 3-aminopropane-1-thiol]
PM-resident CFTR protein (CFTR; 0.1 μM): a sizeable fraction of the channel resided at the PM
MIP-2 (TNF alpha, MIP-2): decrease principal inflammatory cytokines
TNF alpha (TNF alpha, MIP-2): decrease principal inflammatory cytokines
BECN1 level [1]: able to restore BECN1
Inflammation biomarkers (phospho)p42/44 MAPK [1]: decrease
p62 levels [1]: reduce p62 levels
Effect on (phospho)p42/44 MAPK after 48 h in presence of EGCG ([1]; 48 h, EGCG): maintained
Effect on BECN1 and p62 after 48 h with EGCG addition ([1]; 48 h, EGCG addition): preserved
Effect on (phospho)p42/44 MAPK after 48 h ([1]; after 48 h): completely lost
Effect on BECN1 and p62 after 48 h ([1]; after 48 h): disappears
